Reference: patent US9969716B2, “Indole derivatives as modulators of methyl modifying enzymes, compositions and uses thereof” (Constellation Pharmaceuticals, Inc., priority 2013, dated 2018)

How the values were obtained:
[1] = target: EZH2 (Homo sapiens, UniProt Q15910); assay: EZH2 assay (rPRC2, 3H SAM methyl transfer to biotinylated oligonucleosomes, FlashPlate); format: biochemical
Method: EZH2 Assay: Assays were carried out by mixing rPRC2 together with biotinylated oligonucleosome substrates in the presence of the radio-labeled enzyme co-factor, S-adenosyl-L-methionine (^3H SAM) (Perkin Elmer) and monitoring the enzymatically mediated transfer of tritiated methyl groups from ^3H SAM to histone lysine residues. The amount of resulting tritiated methyl histone product was measured by first capturing the biotinylated oligonucleosomes in streptavidin (SAV) coated FlashPlates (Perkin Elmer), followed by a wash step to remove un-reacted ^3H SAM, and then counting on a TopCount NXT 384 well plate scintillation counter (Perkin Elmer). The final assay conditions for EZH2 were as follows: 50 mM Tris Buffer pH 8.5, 1 mM DTT, 69 μM Brij-35 detergent, 5.0 mM MgCl2, 0.1 mg/mL BSA, 0.2 μM ^3H SAM, 0.2 μM biotinylated oligonucleosomes, 3.6 μM H3K27me3 peptide and 2 nM EZH2.
A 12.5 μL volume of the HMT enzyme, H3K27me3 peptide and oligonucleosome substrate in assay buffer was added to each well of the assay plate using a Multidrop Combi (ThermoFisher). Compounds were pre-incubated with the enzyme for 20 min, followed by initiation of the methyltransferase reaction by addition of 12.5 μL of ^3H SAM in assay buffer (final volume=25 μL). The final concentrations of compounds ranged from a top default concentration of 80 μM down to 0.16 μM in ten 2-fold dilution steps. Reactions were carried out for 60 minutes and quenched with 20 μL per well of 1.96 mM SAH, 50 mM Tris pH 8.5, 200 mM EDTA. Stopped reactions were transferred to SAV coated Flashplates (Perkin Elmer), incubated for 120 min, washed with a plate washer, and then read on the TopCount NXT (1.0 min/well) to measure the amount of methyl histone product formed during the reaction.

[2] = system: H3K27me3 mark in HeLa cells; assay: H3K27me3 Alpha Hela Assay (AlphaLISA); format: cell-based; conditions: Homo sapiens, 72 hrs, read-out: EZH2_Cell_H3K27me3_Alpha_HeLa (EC50_K27me3)
Method: Ten different doses of each test compound (in a series of 3-fold dilutions) were plated in duplicate 384-well tissue culture treated plates (Catalog #781080; Greiner Bio One; Monroe, N.C.). Hela cells grown in culture were trypsinized and counted using a Countess® cell counter (Catalog # C10281; Life Technologies, Grand Island, N.Y.). Cell were diluted to 67,000 cells per mL in 10% DMEM (Catalog #10569-010 Life Technologies, Grand Island, N.Y.) and 15 μL (1,000 cells) were plated into each well using the Biotek MicroFlo™ Select Dispenser (BioTek Instruments, Inc. Vermont, USA),) of the 384-well plate. Plates were incubated at 37° C./5% CO2 for 72 hrs. One of the duplicate plates was processed for HeLa assay and the other for viability.
To the plate processed for AlphaLISA was added 5 μL per well Cell-Histone Lysis buffer (1λ) (Catalog # AL009F1 Perkin Elmer; Waltham, Mass.) and the plate was incubated at RT for 30 minutes on a plate shaker with low speed (Model#4625-Q Thermo Scientific; Waltham, Mass.). Then, 10 μL per well Histone Extraction buffer (catalog # AL009F2; Perkin Elmer; Waltham, Mass.) was added and the plate further incubated at RT for 20 min on plate shaker with low speed. To each well was then added 10 μL per well of a 5× mix of anti-K27me3 acceptor beads plus Biotinylated anti-Histone H3 (C-ter) Antibody (diluted to 3 nM final) (Catalog #AL118 Perkin Elmer; Waltham, Mass.). Dilution of the acceptor beads and then anti-Histone H3 was with 1× Histone Detection buffer (Catalog # AL009F3 Perkin Elmer; Waltham, Mass.) which was produced diluted from the 10× stock provided. The plate was sealed with an aluminum plate sealer and incubated at 23° C. for 60 min. We then added 10 μL 5× solution of Streptavidin Donor beads (Catalog #6760002 Perkin Elmer; Waltham, Mass.) (20 μg/mL final in 1× Histone Detection Buffer), sealed the plate with Aluminum plate sealer and incubated at 23° C. for 30 min. The plates were then read using an EnVision-Alpha Reader (model #2104 Perkin Elmer; Waltham, Mass.).
Data from both assays was analyzed using Assay Assistant (Constellation Pharmaceuticals In-house product) and Activity Base (IDBS Ltd, Surrey, UK) template. Data files were imported to Assay Assistant and assay conditions were specified. A unique Analysis ID was created and the data files exported to Activity Base. An analysis template was created on Activity Base to measure dose-dependent inhibition of H3K27me3 mark and cell viability respectively. Readout of DMSO wells were used to normalize the data. Resulting curves were fitted using Activity base software Model 205 (IDBS Ltd, Surrey, UK). The data was checked for quality, validated and integrated in excel format using SARview (IDBS Ltd, Surrey, UK).

EZH2, sequence (Q15910 whole entry): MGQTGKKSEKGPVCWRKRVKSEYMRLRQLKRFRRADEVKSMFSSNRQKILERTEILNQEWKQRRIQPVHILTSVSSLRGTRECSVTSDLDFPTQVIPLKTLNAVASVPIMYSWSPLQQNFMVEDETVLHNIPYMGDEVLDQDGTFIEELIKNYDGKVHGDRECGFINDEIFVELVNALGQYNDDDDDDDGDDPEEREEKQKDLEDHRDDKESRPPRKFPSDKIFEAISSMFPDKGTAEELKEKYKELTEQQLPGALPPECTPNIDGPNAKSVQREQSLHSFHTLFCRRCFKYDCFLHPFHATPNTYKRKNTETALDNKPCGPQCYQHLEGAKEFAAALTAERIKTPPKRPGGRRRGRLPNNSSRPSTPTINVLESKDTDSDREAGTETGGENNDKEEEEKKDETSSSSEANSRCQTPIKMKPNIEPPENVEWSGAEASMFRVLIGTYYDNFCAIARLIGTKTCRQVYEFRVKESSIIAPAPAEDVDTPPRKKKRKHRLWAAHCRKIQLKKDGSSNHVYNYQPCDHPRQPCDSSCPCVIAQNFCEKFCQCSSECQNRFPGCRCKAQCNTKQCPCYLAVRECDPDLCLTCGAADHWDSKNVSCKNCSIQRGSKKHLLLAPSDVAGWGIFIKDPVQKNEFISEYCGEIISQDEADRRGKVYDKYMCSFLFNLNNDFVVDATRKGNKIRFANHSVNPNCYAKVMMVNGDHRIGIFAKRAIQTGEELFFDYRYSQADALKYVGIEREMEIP
EZH2, sequence (O75530 whole entry partner): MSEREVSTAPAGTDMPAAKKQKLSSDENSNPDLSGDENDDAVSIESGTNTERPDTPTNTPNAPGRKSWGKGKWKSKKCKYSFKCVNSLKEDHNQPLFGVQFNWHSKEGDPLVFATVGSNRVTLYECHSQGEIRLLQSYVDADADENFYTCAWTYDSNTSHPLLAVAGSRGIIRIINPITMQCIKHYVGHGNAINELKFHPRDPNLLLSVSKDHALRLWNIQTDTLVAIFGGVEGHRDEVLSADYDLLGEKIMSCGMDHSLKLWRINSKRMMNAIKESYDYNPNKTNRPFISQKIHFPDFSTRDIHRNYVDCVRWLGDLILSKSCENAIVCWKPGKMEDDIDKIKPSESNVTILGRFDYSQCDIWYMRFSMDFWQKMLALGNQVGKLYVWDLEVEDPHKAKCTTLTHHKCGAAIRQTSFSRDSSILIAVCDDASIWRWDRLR
EZH2, sequence (Q15022 whole entry partner): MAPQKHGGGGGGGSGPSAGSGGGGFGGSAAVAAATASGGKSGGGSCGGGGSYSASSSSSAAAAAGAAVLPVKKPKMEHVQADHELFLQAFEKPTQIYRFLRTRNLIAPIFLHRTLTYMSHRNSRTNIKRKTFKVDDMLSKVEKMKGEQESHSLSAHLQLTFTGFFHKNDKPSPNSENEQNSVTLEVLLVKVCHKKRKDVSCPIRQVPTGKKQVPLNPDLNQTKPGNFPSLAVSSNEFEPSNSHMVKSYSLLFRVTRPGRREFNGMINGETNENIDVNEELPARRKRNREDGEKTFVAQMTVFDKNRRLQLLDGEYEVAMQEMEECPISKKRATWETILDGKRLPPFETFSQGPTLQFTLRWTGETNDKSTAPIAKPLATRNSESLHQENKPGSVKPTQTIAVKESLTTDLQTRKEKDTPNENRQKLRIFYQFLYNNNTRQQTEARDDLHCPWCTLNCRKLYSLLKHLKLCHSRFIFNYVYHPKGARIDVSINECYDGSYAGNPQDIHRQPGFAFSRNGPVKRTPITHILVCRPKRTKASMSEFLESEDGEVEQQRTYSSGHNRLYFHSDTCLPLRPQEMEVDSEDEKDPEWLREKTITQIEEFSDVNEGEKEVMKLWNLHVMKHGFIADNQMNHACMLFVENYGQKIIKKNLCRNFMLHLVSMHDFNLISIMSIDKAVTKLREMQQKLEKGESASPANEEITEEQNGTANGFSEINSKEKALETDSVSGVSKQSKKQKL

Compound: COc1cc(C)[nH]c(=O)c1CNC(=O)c1c(C)n([C@H](C)C2CCN(C(=O)C3CC(F)(F)C3)CC2)c2ccccc12 [Compound 228]
- IC50 [1]: < 0.1 µM
- EC50 [2]: 0.4 to 2 µM

Compound: COc1cc(C)[nH]c(=O)c1CNC(=O)c1c(C)n([C@H](C)C2CCN(C(=O)C3CC3(F)F)CC2)c2ccccc12 (stereo partly drawn) [Compound 229]
- IC50 [1]: < 0.1 µM
- EC50 [2]: 0.4 to 2 µM

Compound: COCC(F)(F)C(=O)N1CCC([C@@H](C)n2c(C)c(C(=O)NCc3c(OC)cc(C)[nH]c3=O)c3ccccc32)CC1 [Compound 230]
- IC50 [1]: < 0.1 µM
- EC50 [2]: < 0.4 µM

Compound: CC(=O)N1CC(N2CCC([C@@H](C)n3c(C)c(C(=O)NCc4c(C)cc(C)[nH]c4=O)c4ccccc43)CC2)C1 [Compound 231]
- IC50 [1]: < 0.1 µM
- EC50 [2]: 0.4 to 2 µM

Compound: COc1cc(C)[nH]c(=O)c1CNC(=O)c1c(C)n([C@H](C)C2CCN(Cc3ccc(C#N)cc3)CC2)c2ccccc12 [Compound 232]
- IC50 [1]: < 0.1 µM
- EC50 [2]: < 0.4 µM

Compound: CCC(C)(C)C(=O)N1CCC([C@@H](C)n2c(C)c(C(=O)NCc3c(OC)cc(C)[nH]c3=O)c3ccccc32)CC1 [Compound 233]
- IC50 [1]: < 0.1 µM
- EC50 [2]: < 0.4 µM

Compound: COc1cc(C)[nH]c(=O)c1CNC(=O)c1c(C)n([C@H](C)C2CCN(C(=O)C3CCCC3)CC2)c2ccccc12 [Compound 235]
- IC50 [1]: < 0.1 µM
- EC50 [2]: 0.4 to 2 µM

Compound: COc1cc(C)[nH]c(=O)c1CNC(=O)c1c(C)n([C@H](C)C2CCN(C(=O)C(C)(C)OC)CC2)c2ccccc12 [Compound 236]
- IC50 [1]: < 0.1 µM
- EC50 [2]: < 0.4 µM

Compound: COc1cc(C)[nH]c(=O)c1CNC(=O)c1c(C)n([C@H](C)C2CCN(C(=O)Cn3ccnc3C)CC2)c2ccccc12 [Compound 237]
- IC50 [1]: < 0.1 µM
- EC50 [2]: > 2 µM

Compound: COc1cc(C)[nH]c(=O)c1CNC(=O)c1c(C)n([C@H](C)C2CCN(Cc3cnn(C)c3)CC2)c2ccccc12 [Compound 238]
- IC50 [1]: < 0.1 µM
- EC50 [2]: > 2 µM

Compound: COc1cc(C)[nH]c(=O)c1CNC(=O)c1c(C)n([C@H](C)C2CCN(Cc3nccn3C)CC2)c2ccccc12 [Compound 239]
- IC50 [1]: < 0.1 µM
- EC50 [2]: 0.4 to 2 µM

Compound: COc1cc(C)[nH]c(=O)c1CNC(=O)c1c(C)n([C@H](C)C2CCN(Cc3cncnc3)CC2)c2ccccc12 [Compound 240]
- IC50 [1]: < 0.1 µM
- EC50 [2]: 0.4 to 2 µM

Compound: COc1cc(C)[nH]c(=O)c1CNC(=O)c1c(C)n([C@H](C)C2CCN(Cc3ncccn3)CC2)c2ccccc12 [Compound 241]
- IC50 [1]: < 0.1 µM
- EC50 [2]: 0.4 to 2 µM

Compound: COc1cc(C)[nH]c(=O)c1CNC(=O)c1c(C)n([C@H](C)C2CCN(C(=O)C3(F)CCN(C)CC3)CC2)c2ccccc12 [Compound 242]
- IC50 [1]: < 0.1 µM
- EC50 [2]: 0.4 to 2 µM

Compound: COc1cc(C)[nH]c(=O)c1CNC(=O)c1c(C)n([C@H](C)C2CCN(C(=O)C3CCN(C)CC3)CC2)c2ccccc12 [Compound 243]
- IC50 [1]: < 0.1 µM
- EC50 [2]: > 2 µM

Compound: COc1cc(C)[nH]c(=O)c1CNC(=O)c1c(C)n([C@H](C)C2CCN(Cc3cccnc3)CC2)c2ccccc12 [Compound 244]
- IC50 [1]: < 0.1 µM
- EC50 [2]: 0.4 to 2 µM

Compound: COc1cc(C)[nH]c(=O)c1CNC(=O)c1c(C)n([C@H](C)C2CCN(Cc3ccncc3)CC2)c2ccccc12 [Compound 245]
- IC50 [1]: < 0.1 µM
- EC50 [2]: < 0.4 µM

Compound: COc1cc(C)[nH]c(=O)c1CNC(=O)c1c(C)n([C@H](C)C2CCN(Cc3ccnc(C)c3)CC2)c2ccccc12 [Compound 246]
- IC50 [1]: < 0.1 µM
- EC50 [2]: < 0.4 µM

Compound: COc1cc(C)[nH]c(=O)c1CNC(=O)c1c(C)n([C@H](C)C2CCN(C(=O)Cc3cc(C)no3)CC2)c2ccccc12 [Compound 247]
- IC50 [1]: < 0.1 µM
- EC50 [2]: 0.4 to 2 µM

Compound: COc1cc(C)[nH]c(=O)c1CNC(=O)c1c(C)n([C@H](C)C2CCN(C(=O)N3CCC(F)(F)C3)CC2)c2ccccc12 [Compound 248]
- IC50 [1]: < 0.1 µM
- EC50 [2]: 0.4 to 2 µM

Compound: COc1cc(C)[nH]c(=O)c1CNC(=O)c1c(C)n([C@H](C)C2CCN(C(=O)N3CCC(F)(F)CC3)CC2)c2ccccc12 [Compound 249]
- IC50 [1]: < 0.1 µM
- EC50 [2]: 0.4 to 2 µM

Compound: COc1cc(C)[nH]c(=O)c1CNC(=O)c1c(C)n([C@H](C)C2CCN(Cc3ccc(C#N)cn3)CC2)c2ccccc12 [Compound 250]
- IC50 [1]: < 0.1 µM
- EC50 [2]: < 0.4 µM

Compound: COc1cc(C)[nH]c(=O)c1CNC(=O)c1c(C)n([C@H](C)C2CCN(Cc3ccnc(C(F)(F)F)c3)CC2)c2ccccc12 [Compound 251]
- IC50 [1]: < 0.1 µM
- EC50 [2]: < 0.4 µM

Compound: COc1cc(C)[nH]c(=O)c1CNC(=O)c1c(C)n([C@H](C)C2CCN(Cc3cc(C)nc(C)c3)CC2)c2ccccc12 [Compound 252]
- IC50 [1]: < 0.1 µM
- EC50 [2]: < 0.4 µM

Compound: COc1cc(C)[nH]c(=O)c1CNC(=O)c1c(C)n([C@H](C)C2CCN(C(C)(C)C(C)=O)CC2)c2ccccc12 [Compound 253]
- IC50 [1]: < 0.1 µM
- EC50 [2]: < 0.4 µM

Compound: COc1cc(C)[nH]c(=O)c1CNC(=O)c1c(C)n([C@H](C)C2CCN(C3CC3)CC2)c2ccccc12 [Compound 254]
- IC50 [1]: < 0.1 µM
- EC50 [2]: < 0.4 µM

Compound: COc1cc(C)[nH]c(=O)c1CNC(=O)c1c(C)n([C@H](C)C2CCN(Cc3ccn(C)n3)CC2)c2ccccc12 [Compound 255]
- IC50 [1]: < 0.1 µM
- EC50 [2]: > 2 µM

Compound: COc1cc(C)[nH]c(=O)c1CNC(=O)c1c(C)n([C@H](C)C2CCN([S+]([O-])C(C)(C)C)CC2)c2ccccc12 (stereo partly drawn) [Compound 256]
- IC50 [1]: < 0.1 µM
- EC50 [2]: < 0.4 µM

Compound: COc1cc(C)[nH]c(=O)c1CNC(=O)c1c(C)n([C@H](C)C2CCN(Cc3cncc(F)c3)CC2)c2ccccc12 [Compound 257]
- IC50 [1]: < 0.1 µM
- EC50 [2]: < 0.4 µM

Compound: COc1cc(C)[nH]c(=O)c1CNC(=O)c1c(C)n([C@H](C)C2CCN(S(=O)(=O)c3cccnc3)CC2)c2ccccc12 [Compound 258]
- IC50 [1]: < 0.1 µM
- EC50 [2]: 0.4 to 2 µM

Compound: COc1cc(C)[nH]c(=O)c1CNC(=O)c1c(C)n([C@H](C)C2CCN(Cc3ccncn3)CC2)c2ccccc12 [Compound 259]
- IC50 [1]: < 0.1 µM
- EC50 [2]: < 0.4 µM

Compound: COc1cc(C)[nH]c(=O)c1CNC(=O)c1c(C)n([C@H](C)C2CCN(Cc3ccncc3F)CC2)c2ccccc12 [Compound 260]
- IC50 [1]: < 0.1 µM
- EC50 [2]: < 0.4 µM

Compound: COc1cc(C)[nH]c(=O)c1CNC(=O)c1c(C)n([C@H](C)C2CCN(Cc3cnccn3)CC2)c2ccccc12 [Compound 261]
- IC50 [1]: < 0.1 µM
- EC50 [2]: < 0.4 µM
